Assay results published in the supplement of paper PMC9663587.

Experiments:
Cabozantinib = compound: COc1cc2nccc(Oc3ccc(NC(=O)C4(C(=O)Nc5ccc(F)cc5)CC4)cc3)c2cc1OC [Cabozantinib]
Paclitaxel = compound: CC(=O)O[C@H]1C(=O)[C@@]2(C)[C@H]([C@H](OC(=O)c3ccccc3)[C@]3(O)C[C@H](OC(=O)[C@H](O)[C@@H](NC(=O)c4ccccc4)c4ccccc4)C(C)=C1C3(C)C)[C@]1(OC(C)=O)CO[C@@H]1C[C@@H]2O [Paclitaxel]
BSJ-03-123 = compound: CC(=O)c1c(C)c2cnc(Nc3ccc(N4CCN(CCOCCOCCOCCNC(=O)COc5cccc6c5C(=O)N(C5CCC(=O)NC5=O)C6=O)CC4)cn3)nc2n(C2CCCC2)c1=O [BSJ-03-123]
[1] = compound: CCc1cnn2c(NCc3ccc[n+]([O-])c3)cc(N3CCCC[C@H]3CCO)nc12
Vorinostat = compound: O=C(CCCCCCC(=O)Nc1ccccc1)NO [Vorinostat]
SHP099 = compound: CC1(CCN(CC1)C2=CN=C(C(=N2)N)C3=C(C(=CC=C3)Cl)Cl)N [SHP099]
Buparlisib/NVP-BKM120 = compound: Nc1cc(C(F)(F)F)c(-c2cc(N3CCOCC3)nc(N3CCOCC3)n2)cn1 [Buparlisib/NVP-BKM120]
[2] = compound: CCN1CCN(Cc2ccc(Nc3ncc(F)c(-c4cc(F)c5nc(C)n(C(C)C)c5c4)n3)nc2)CC1
AZD5363 = compound: NC1(C(=O)N[C@@H](CCO)c2ccc(Cl)cc2)CCN(c2nc[nH]c3nccc2-3)CC1 [AZD5363]
Flavopiridol = compound: CN1CC[C@H](c2c(O)cc(O)c3c(=O)cc(-c4ccccc4Cl)oc23)[C@H](O)C1 [Flavopiridol]; assay: GR value, 72 h; higher = faster growth (1 = untreated, <0 = killing);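 further: breast cancer and non-malignant breast epithelial lines, nine half-log doses, viable cells counted by Hoechst and LIVE/DEAD dye imaging versus time-zero plates and DMSO controls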
[3] = compound: CCc1cnn2c(NCc3ccc[n+]([O-])c3)cc(N3CCCC[C@H]3CCO)nc12; assay: as above
YKL-5-124 = compound: C=CC(=O)Nc1ccc(C(=O)Nc2[nH]nc3c2CN(C(=O)N[C@H](CN(C)C)c2ccccc2)C3(C)C)cc1 [YKL-5-124]; assay: as above
LEE011/Ribociclib = compound: CN(C)C(=O)c1cc2cnc(Nc3ccc(N4CCNCC4)cn3)nc2n1C1CCCC1 [LEE011/Ribociclib]; assay: as above
[4] = compound: CC(=O)c1c(C)c2cnc(Nc3ccc(N4CCNCC4)cn3)nc2n(C2CCCC2)c1=O; assay: as above
THZ1 = compound: CN(C)C/C=C/C(=O)Nc1ccc(C(=O)Nc2cccc(Nc3ncc(Cl)c(-c4c[nH]c5ccccc45)n3)c2)cc1 [THZ1]; assay: as above
[5] = compound: CCN1CCN(Cc2ccc(Nc3ncc(F)c(-c4cc(F)c5nc(C)n(C(C)C)c5c4)n3)nc2)CC1; assay: as above
THZ531 = compound: CN(C)C/C=C/C(=O)Nc1ccc(C(=O)N2CCC[C@@H](Nc3ncc(Cl)c(-c4c[nH]c5ccccc45)n3)C2)cc1 [THZ531]; assay: as above
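Wherever GR50, 72 h is given: breast cancer and non-malignant breast epithelial cell lines, Deep Dye Drop or Dye Drop imaging, nine half-log doses, GR normalized to time-zero plates and DMSO-only controls.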

T47D
GR50, 72 h (Cabozantinib): 7.88 µM | GR50, 72 h (Paclitaxel): 0.00353 µM | GR50, 72 h (BSJ-03-123): 0.00165 µM | GR50, 72 h [1]: 0.0199 µM | GR50, 72 h (Vorinostat): 1.83 µM | GR50, 72 h (SHP099): > 10 µM | GR50, 72 h (Buparlisib/NVP-BKM120): 0.248 µM | GR50, 72 h [2]: 0.00428 µM | GR50, 72 h (AZD5363): 0.0138 µM | GR value (Flavopiridol; 0.0001 µM): 0.983 GR | GR value (Flavopiridol; 0.0003162 µM): 1.05 GR | GR value (Flavopiridol; 0.001 µM): 0.945 GR | GR value (Flavopiridol; 0.003162 µM): 1.05 GR | GR value (Flavopiridol; 0.01 µM): 0.897 GR | GR value (Flavopiridol; 0.03162 µM): 0.808 GR | GR value (Flavopiridol; 0.1 µM): 0.548 GR | GR value (Flavopiridol; 0.3162 µM): 0.148 GR | GR value (Flavopiridol; 1 µM): -0.153 GR | GR value ([3]; 0.0001 µM): 0.999 GR | GR value ([3]; 0.0003162 µM): 1.01 GR | GR value ([3]; 0.001 µM): 1.08 GR | GR value ([3]; 0.003162 µM): 1.12 GR | GR value ([3]; 0.01 µM): 1.05 GR | GR value ([3]; 0.03162 µM): -0.0667 GR | GR value ([3]; 0.1 µM): -0.128 GR | GR value ([3]; 0.3162 µM): -0.19 GR | GR value ([3]; 1 µM): -0.22 GR | GR value (YKL-5-124; 0.001 µM): 0.51 GR | GR value (YKL-5-124; 0.003162 µM): 0.332 GR | GR value (YKL-5-124; 0.01 µM): 0.172 GR | GR value (YKL-5-124; 0.03162 µM): 0.143 GR | GR value (YKL-5-124; 0.1 µM): 0.0629 GR | GR value (YKL-5-124; 0.3162 µM): 0.0978 GR | GR value (YKL-5-124; 1 µM): 0.082 GR | GR value (YKL-5-124; 3.162 µM): 0.0131 GR | GR value (YKL-5-124; 10 µM): -0.175 GR | GR value (LEE011/Ribociclib; 0.001 µM): 0.614 GR | GR value (LEE011/Ribociclib; 0.003162 µM): 0.624 GR | GR value (LEE011/Ribociclib; 0.01 µM): 0.407 GR | GR value (LEE011/Ribociclib; 0.03162 µM): 0.413 GR | GR value (LEE011/Ribociclib; 0.1 µM): 0.297 GR | GR value (LEE011/Ribociclib; 0.3162 µM): 0.244 GR | GR value (LEE011/Ribociclib; 1 µM): 0.174 GR | GR value (LEE011/Ribociclib; 3.162 µM): 0.151 GR | GR value (LEE011/Ribociclib; 10 µM): 0.163 GR | GR value ([4]; 0.0003162 µM): 1.07 GR | GR value ([4]; 0.001 µM): 1.08 GR | GR value ([4]; 0.003162 µM): 1.04 GR | GR value ([4]; 0.01 µM): 0.782 GR | GR value ([4]; 0.03162 µM): 0.478 GR | GR value ([4]; 0.1 µM): 0.203 GR | GR value ([4]; 0.3162 µM): 0.177 GR | GR value ([4]; 1 µM): 0.122 GR | GR value ([4]; 3.162 µM): 0.132 GR | GR value (THZ1; 0.0001 µM): 0.967 GR | GR value (THZ1; 0.0003162 µM): 1.08 GR | GR value (THZ1; 0.001 µM): 0.922 GR | GR value (THZ1; 0.003162 µM): 1.02 GR | GR value (THZ1; 0.01 µM): 0.841 GR | GR value (THZ1; 0.03162 µM): 0.474 GR | GR value (THZ1; 0.1 µM): -0.116 GR | GR value (THZ1; 0.3162 µM): -0.142 GR | GR value (THZ1; 1 µM): -0.269 GR | GR value ([5]; 0.001 µM): 0.86 GR | GR value ([5]; 0.003162 µM): 0.604 GR | GR value ([5]; 0.01 µM): 0.244 GR | GR value ([5]; 0.03162 µM): 0.0789 GR | GR value ([5]; 0.1 µM): 0.166 GR | GR value ([5]; 0.3162 µM): 0.117 GR | GR value ([5]; 1 µM): 0.171 GR | GR value ([5]; 3.162 µM): 0.0597 GR | GR value ([5]; 10 µM): -0.03 GR | GR value (THZ531; 0.0001 µM): 1.06 GR | GR value (THZ531; 0.0003162 µM): 0.984 GR | GR value (THZ531; 0.001 µM): 1.04 GR | GR value (THZ531; 0.003162 µM): 0.925 GR | GR value (THZ531; 0.01 µM): 1.15 GR | GR value (THZ531; 0.03162 µM): 1.06 GR | GR value (THZ531; 0.1 µM): 0.675 GR | GR value (THZ531; 0.3162 µM): -0.121 GR | GR value (THZ531; 1 µM): -0.102 GR
